Data on eight molecules can be found in patent publication US7459480B2, “Benzodioxepine derivatives” (Hoffmann-La Roche Inc., priority 2003, dated 2008).

Molecules are shown by their SMILES.

Broadly, the IC50 is the concentration that inhibits the measured activity by half. A low value points to greater potency in that assay.

In this experiment the target is T1, human ACCβ (Homo sapiens, UniProt O00763).
T1 construct: The cloning of the full length human muscle-type ACCβ cDNA and expression in HEK293 cells; made in house; host or cells: HEK293 cells (ATCC CRL-1573), transfected with plasmid pRF33D
T1 sequence (O00763 whole entry): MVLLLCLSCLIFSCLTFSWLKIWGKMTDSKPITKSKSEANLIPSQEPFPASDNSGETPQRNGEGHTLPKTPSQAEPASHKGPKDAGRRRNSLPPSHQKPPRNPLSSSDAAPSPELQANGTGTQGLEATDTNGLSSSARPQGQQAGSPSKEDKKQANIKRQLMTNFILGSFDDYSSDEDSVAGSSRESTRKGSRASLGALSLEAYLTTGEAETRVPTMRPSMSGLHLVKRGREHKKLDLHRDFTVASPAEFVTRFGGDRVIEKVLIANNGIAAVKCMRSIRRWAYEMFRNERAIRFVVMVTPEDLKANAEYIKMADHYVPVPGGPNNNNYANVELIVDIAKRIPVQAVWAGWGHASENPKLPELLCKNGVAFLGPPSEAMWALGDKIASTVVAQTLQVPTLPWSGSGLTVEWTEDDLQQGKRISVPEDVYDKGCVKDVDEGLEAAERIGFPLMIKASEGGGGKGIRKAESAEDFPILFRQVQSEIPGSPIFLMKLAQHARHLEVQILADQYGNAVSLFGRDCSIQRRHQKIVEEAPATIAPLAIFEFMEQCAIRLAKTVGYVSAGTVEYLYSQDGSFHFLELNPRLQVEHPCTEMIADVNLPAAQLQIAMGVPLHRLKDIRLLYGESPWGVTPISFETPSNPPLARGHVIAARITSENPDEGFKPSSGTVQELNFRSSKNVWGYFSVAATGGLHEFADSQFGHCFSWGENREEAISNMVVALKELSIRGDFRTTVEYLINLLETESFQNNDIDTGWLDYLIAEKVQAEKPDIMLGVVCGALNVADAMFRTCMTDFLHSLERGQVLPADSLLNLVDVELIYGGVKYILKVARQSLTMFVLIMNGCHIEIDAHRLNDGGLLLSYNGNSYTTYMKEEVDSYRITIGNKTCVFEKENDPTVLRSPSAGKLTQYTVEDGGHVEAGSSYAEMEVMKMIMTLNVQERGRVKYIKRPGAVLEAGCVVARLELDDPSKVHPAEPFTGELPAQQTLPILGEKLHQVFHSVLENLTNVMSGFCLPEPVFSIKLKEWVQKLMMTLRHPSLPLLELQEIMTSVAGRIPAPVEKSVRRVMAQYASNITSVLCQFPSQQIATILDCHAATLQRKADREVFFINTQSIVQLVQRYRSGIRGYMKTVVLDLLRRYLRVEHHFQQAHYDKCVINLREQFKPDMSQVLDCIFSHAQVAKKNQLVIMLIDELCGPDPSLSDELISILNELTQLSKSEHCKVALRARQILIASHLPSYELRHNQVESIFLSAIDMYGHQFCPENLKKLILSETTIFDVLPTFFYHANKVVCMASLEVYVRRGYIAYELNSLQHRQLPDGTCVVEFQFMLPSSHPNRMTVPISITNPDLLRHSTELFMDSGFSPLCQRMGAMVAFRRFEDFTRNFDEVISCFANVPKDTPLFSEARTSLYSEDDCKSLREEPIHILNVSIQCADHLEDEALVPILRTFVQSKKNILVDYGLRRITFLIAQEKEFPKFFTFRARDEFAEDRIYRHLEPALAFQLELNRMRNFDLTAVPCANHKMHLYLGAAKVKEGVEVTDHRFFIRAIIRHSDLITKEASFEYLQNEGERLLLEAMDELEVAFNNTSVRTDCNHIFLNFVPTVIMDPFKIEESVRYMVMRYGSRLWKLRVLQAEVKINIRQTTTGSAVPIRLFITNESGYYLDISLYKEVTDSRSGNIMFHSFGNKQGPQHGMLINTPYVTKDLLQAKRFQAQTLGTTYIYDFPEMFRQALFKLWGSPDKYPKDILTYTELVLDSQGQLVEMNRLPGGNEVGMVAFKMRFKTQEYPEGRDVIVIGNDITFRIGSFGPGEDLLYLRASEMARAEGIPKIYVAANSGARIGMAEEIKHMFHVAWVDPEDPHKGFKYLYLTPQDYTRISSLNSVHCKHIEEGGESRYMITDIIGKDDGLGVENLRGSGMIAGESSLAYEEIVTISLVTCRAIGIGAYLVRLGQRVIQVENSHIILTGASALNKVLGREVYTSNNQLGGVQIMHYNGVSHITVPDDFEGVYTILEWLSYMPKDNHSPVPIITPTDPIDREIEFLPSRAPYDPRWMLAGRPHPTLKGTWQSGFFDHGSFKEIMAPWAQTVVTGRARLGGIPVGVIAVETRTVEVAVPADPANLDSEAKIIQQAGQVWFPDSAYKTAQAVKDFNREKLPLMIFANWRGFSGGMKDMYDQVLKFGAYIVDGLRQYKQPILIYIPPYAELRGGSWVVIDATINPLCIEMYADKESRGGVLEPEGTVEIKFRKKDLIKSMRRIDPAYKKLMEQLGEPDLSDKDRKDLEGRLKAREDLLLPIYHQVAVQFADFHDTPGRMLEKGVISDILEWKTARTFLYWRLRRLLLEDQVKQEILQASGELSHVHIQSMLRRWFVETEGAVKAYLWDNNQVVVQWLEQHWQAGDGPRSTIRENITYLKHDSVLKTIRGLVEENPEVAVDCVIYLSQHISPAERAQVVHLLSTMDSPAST
Description: Radiometric ACCβ enzyme inhibition assay ([14C]NaHCO3 incorporation into malonyl-CoA). It is filed as biochemical. The settings on record: human muscle-type ACCβ expressed in HEK293 cells; saturating substrate concentrations; 37° C., 45 min. On the procedure:
Production and Characterization of Human ACCβ Enzyme, Its Use in ACC Activity Assays and for Inhibition Studies
The cloning of the full length human muscle-type ACCβ cDNA and expression in HEK293 cells (ATCC, # CRL-1573) was performed as follows. The ACCβ cDNA was amplified by the polymerase chain reaction (PCR) and was cloned using standard recombinant DNA techniques. The PCR reaction was performed with the Expand Long Template PCR System (Roche Molecular Biochemicals, # 1 681 8340) and 0.5 ng of cDNA from human skeletal muscle as template. The primers used for PCR amplification were designed on the basis of the published sequence of the human ACCβ cDNA isolated from a human liver cDNA library (Abul-Elheiga et al. J. Biol. Chem. 272, 10669-10677, 1997). The sequence of the forward primer ACCB1 was 5′-[…]-3′; it includes a NheI restriction cleavage site for subcloning and a Kozak translation initiation consensus sequence preceding the ATG start codon. The sequence of the reverse primer ACCB8 was 5′-[…]-3′; it includes a stop codon and a XhoI restriction cleavage site for subcloning. The amplified DNA fragment of approximately 7.4 kb was cloned into a mammalian expression vector. The resulting plasmid isolates, pRF33A, B, C, D, and E were individually transfected in human embryonic kidney 293 cells (HEK293) using a standard lipid transfection method. Cell extracts of transfected cells were prepared in a lysis buffer containing 0.4 mg/ml digitonin and enzyme activity was determined using a radiometric ACC activity assay as described below. Plasmid pRF33D gave the highest activity and was chosen for large scale transfections of HEK293 cells and enzyme purification.
Since ACC enzyme activities in crude cell lysates were very low, enrichment of ACCβ enzyme expressed in HEK293 cells was achieved by a single anion exchange chromatography step. Cell lysates were run over a 5 ml Econo Pac High Q column (Bio-Rad, # 732-0027). Bound proteins were eluted by a gradient of NaCl from 0 to 1 M in 50 mM Tris-HCl, pH 7.5, 1 mM DTT, 5% glycerol. Fractions containing high ACCβ enzyme activity were pooled and stored at −20° C.
Standard ACCβ enzyme assays, in a total volume of 100 μl, contained 50 mM HEPES-KOH, pH 7.5, 10 mM K-citrate, 10 mM MgSO4, 1 mM ATP, 0.1 mM DTT, 2% DMSO, 0.1 mg/ml fatty acid-free BSA, 0.2 mM acetyl-CoA, 2 mM KHCO3, 0.2 mM [^14C]NaHCO3 (50-60 mCi/mmol) and cell lysate or purified ACCβ enzyme. Reactions were incubated at 37° C. for 45 min. and stopped by the addition of 50 μl of 2 N HCl. Terminated reactions were incubated at 50° C. over night to evaporate non-incorporated [^14C]NaHCO3. [^14C]-labeled malonyl-CoA reaction product was quantitated by liquid scintillation counting after the addition of 20 μl of Microscint 20 (Canberra Packard, # 6013621) on a TopCount NXT microplate scintillation counter (Canberra Packard).
Inhibition of ACCβ activity was determined at saturating substrate concentrations with two-fold serial dilutions of test compounds spanning a concentration range of at least two log units. IC50 values were calculated with the GraFit software (Erithacus Software Ltd.).
For the molecule `COc1cccc(C#Cc2ccc3c(c2)OCC(C)(C)CO3)c1` [Example 5, 7-(3-Methoxy-phenylethynyl)-3,3-dimethyl-3,4-dihydro-2H-benzo[b][1,4]dioxepine], inhibition was half-maximal at 42.2 µM (IC50). In other words, the double-digit micromolar range. For `CCOc1ccc(C#Cc2ccc3c(c2)OCC(C)(C)CO3)cc1` [Example 7, 7-(4-Ethoxy-phenylethynyl)-3,3-dimethyl-3,4-dihydro-2H-benzo[b][1,4]dioxepine], the half-maximal inhibitory concentration (IC50) stood at 1.44 µM. In the case of `CC1(C)COc2ccc(C#Cc3ccc4c(c3)CCO4)cc2OC1` [Example 9, 7-(2,3-Dihydro-benzofuran-5-ylethynyl)-3,3-dimethyl-3,4-dihydro-2H-benzo[b][1,4]dioxepine], the IC50 was determined as 15.1 µM. The molecule `CCOC(=O)c1ccc(C#Cc2ccc3c(c2)OCC(C)(C)CO3)cn1` [Example 13, 5-(3,3-Dimethyl-3,4-dihydro-2H-benzo[b][1,4]dioxepin-7-ylethynyl)-pyridine-2-carboxylic acid ethyl ester] yielded an IC50 of 5.41 µM. The molecule `Cn1nnc(-c2ccc(C#Cc3ccc4c(c3)OCC(C)(C)CO4)cc2)n1` [Example 14, 5-[4-(3,3-Dimethyl-3,4-dihydro-2H-benzo[b][1,4]dioxepin-7-ylethynyl)-phenyl]-2-methyl-2H-tetrazole] displayed a concentration for half-maximal inhibition (IC50) of 11.2 µM. This IC50 lies about 2.1-fold higher than the previous one. As for `CCOC(=O)c1cccc(C#Cc2ccc3c(c2)OCC(C)(C)CO3)c1` [Example 15, 3-(3,3-Dimethyl-3,4-dihydro-2H-benzo[b][1,4]dioxepin-7-ylethynyl)-benzoic acid ethyl ester], the midpoint of inhibition, the IC50, lay at 3.11 µM. Regarding `CCCOc1ccc(C#Cc2ccc3c(c2)OCC(C)(C)CO3)cc1` [Example 21, 3,3-Dimethyl-7-(4-propoxy-phenylethynyl)-3,4-dihydro-2H-benzo[b][1,4]dioxepine], the IC50 is 0.01 µM. In turn, `CCOC(=O)c1ccc(OCc2ccc3c(c2)OCC(C)(C)CO3)cc1` [Example 23, 4-(3,3-Dimethyl-3,4-dihydro-2H-benzo[b][1,4]dioxepin-7-ylmethoxy)-benzoic acid ethyl ester] had an IC50 of 0.25 µM.
